Counter-ions that a name gives are not always drawn.

The nature of data set [1]: Acute toxicity test (oral LD50). The following applies: mouse, in vivo; oral (5% solution), male ddY mice, seven days, Litchfield-Wilcoxon. On the procedure:
ddY mice (.male., 4 weeks old) were divided into groups of five mice and the test compound dissolved in purified water was administered orally (5% solution) (p.o) to the male ddY mice.
After seven days, LD50 values were calculated from the dead […] recorded in the individual dosage groups by the method of Litchfield-Wilcoxon.

Data set [2] relates to taenia caecum of guinea pig. The data set can be described thus: Calcium antagonistic effect (relaxation of CaCl2-induced contraction in K+-depolarized taenia caecum). The format is cell-based. To be noted: Cavia porcellus; -log ID50 (M); 50% relaxation relative to maximum relaxation by 10^-4 M papaverine; 37° C, 10 mM CaCl2; read-out: pID50 (calcium antagonistic effect) (converted). Here is the method: 10 mm in situ length of taenia caecum of guinea pig was suspended at a tension of 1 g in a 20 ml organ bath filled with a physiological salt solution (NaCl: 135 mM, KCl: 5 mM etc.).
This solution was bubbled with a gas mixture of 95% O2 -5% CO2 and kept at 37° C. Then, the preparation was depolarized by a K^+ rich solution (NaCl: 40 mM, KCl: 100 mM). After 10-20 minutes equilibration period, 10 mM of CaCl2 was added to the bathing solution. The contraction was produced, and then the test compound applied cumulatively. The relaxation produced was expressed as percentage of the maximum relaxation produced by 10^-4 M papaverine, and the concentration of the compound producing 50% relaxation, i.e. ID50 (M), was calculated.

Data set [3] has as its system male spontaneously hypertensive rat (SHR). The data set can be described thus: Antihypertensive effect (systolic blood pressure, tail cuff method, oral, SHR). The data set is classed as in vivo. To be noted: systolic blood pressure at 2, 4, 6 and 8 hours. Here is the method:
After oral administration of the test compound dissolved in a H2 O-PEG 400 solvent mixture (H2 O:PEG 400 (w/w)=1:3) to the male spontaneously hypertensive rat (SHR), the systolic blood pressure was measured at 2, 4, 6 and 8 hours after the administration of the test compounds by a tail cuff method. Prior to the measurement, rats were warmed at 50° C. for five minutes. The effectively antihypertensive activities were observed also at 8 hours after the administraton of the test compounds. Test 2: Acute toxicity test

The term LD50 denotes the dose at which mortality reaches 50%. A higher LD50 goes with lower toxicity. On to `CC1=C(C(=O)OCCN2CCN(C(c3ccccc3)c3ccccc3)CC2)C(c2cccc(Cl)c2Cl)C(P2(=O)OCC(C)(C)CO2)=C(C)N1` (centres unmarked) [Dihydrochloride of Example 2], for which the 50% lethal dose (LD50) at 168 h in data set [1] is greater than 400 mg/kg. Moreover, the IC50 in data set [2] is 9.77e-08 M. The “Antihypertensive effect, maximum decrease” value in data set [3] (dose 10 mg/kg) is recorded as 37%.

Consider `CC1=C(C(=O)OCCCN2CCN(C(c3ccc(F)cc3)c3ccc(F)cc3)CC2)C(c2cccc(Cl)c2Cl)C(P2(=O)OCC(C)(C)CO2)=C(C)N1` (centres unmarked) [Dihydrochloride of Example 3], for which the LD50 at 168 h in data set [1] was greater than 400 mg/kg. The IC50 in data set [2] was 1.74e-07 M. Moreover, the “Antihypertensive effect, maximum decrease” value in data set [3] (dose 15 mg/kg) is reported as 36%.

The molecule `CC1=C(C(=O)OCCN(Cc2ccccc2)c2ccccc2)C(c2cccc([N+](=O)[O-])c2)C(P2(=O)OCC(C)(C)CO2)=C(C)N1` (centres unmarked) [Hydrochloride of Example 1] came in with an LD50 at 168 h in data set [1] greater than 600 mg/kg. Moreover, the IC50 in data set [2] was 6.76e-09 M. In data set [3] (dose 15 mg/kg), the “Antihypertensive effect, maximum decrease” value is recorded as 36%.

Molecule `CC1=C(C(=O)OC(C)CN(Cc2ccccc2)c2ccccc2)C(c2cccc([N+](=O)[O-])c2)C(P2(=O)OC(C)(C)CC(C)(C)O2)=C(C)N1` (centres unmarked) [Hydrochloride of Example 4] yielded a 50% lethal dose (LD50) at 168 h in data set [1] greater than 300 mg/kg. Also, in data set [2], the IC50 was 1.26e-07 M. In addition, in data set [3] (dose 20 mg/kg), the “Antihypertensive effect, maximum decrease” value was found to be 38%.

Take `CC1=C(C(=O)OCCN(Cc2ccccc2)c2ccccc2)C(c2cccc([N+](=O)[O-])c2)C(P2(=O)OC(C)(C)CC(C)(C)O2)=C(C)N1` (centres unmarked) [Hydrochloride of Example 5]: the LD50 at 168 h in data set [1] is greater than 300 mg/kg. The “Antihypertensive effect, maximum decrease” value in data set [3] (dose 10 mg/kg) amounted to 40%.

As for `CC1=C(C(=O)OC(C)CN(Cc2ccccc2)c2ccccc2)C(c2cccc(Cl)c2Cl)C(P2(=O)O[C@H](C)C[C@@H](C)O2)=C(C)N1` (some centres unmarked) [Hydrochloride of Example 6], the LD50 at 168 h in data set [1] is greater than 300 mg/kg. The IC50 in data set [2] was 1.05e-07 M. In addition, in data set [3] (dose 10 mg/kg), the “Antihypertensive effect, maximum decrease” value was 28%.

Molecule `CC1=C(C(=O)OCCN(Cc2ccccc2)c2ccccc2)C(c2cccc([N+](=O)[O-])c2)C(P2(=O)O[C@H](C)C[C@@H](C)O2)=C(C)N1` (some centres unmarked) [Hydrochloride of Example 7] yielded an LD50 at 168 h in data set [1] greater than 600 mg/kg. For the same molecule, the IC50 in data set [2] was 6.76e-09 M. Also, the “Antihypertensive effect, maximum decrease” value in data set [3] (dose 15 mg/kg) is recorded as 34%.
